Reference: publication PMC12048447, “PANTAX: a phase Ib clinical trial of the efflux pump inhibitor SCO-101 in combination with gemcitabine and nab-paclitaxel in non-resectable or metastatic pancreatic cancer” (Investigational New Drugs, 2025)

Tests used:
[1] = tested on: patients with metastatic PDAC; design: method as in PMID 24131140; conditions: MPACT phase III; cited from earlier work
PANC-1-Pac cells = experiment: MTT cell viability and ZIP synergy in paclitaxel-resistant PANC-1-Pac cells; assay type: cell-based, human; conditions: for ZIP synergy score with paclitaxel: PANC-1-Pac cells, score above 10 indicates synergy
Description: (§1) A paclitaxel-sensitive human PDAC cell line, PANC-1, was obtained (ATCC, CRL-1469) and the derived paclitaxel-resistant PANC-1-Pac cell line was established by gradually increasing concentrations of paclitaxel over a period of 2–4 months. Standard MTT and crystal violet assays were applied to evaluate the effect of treatment with either combinations of SCO-101 and paclitaxel or SRPK1-inhibitor and paclitaxel. Details are presented in the Online Resource.
Statistical analyses were mainly descriptive and included mean, median, range, and 95% CIs. Kaplan–Meier plots were constructed using Stata version 18 (StataCorp, 2023). In the preclinical study, the zero interaction potency (ZIP) synergy score was calculated as described by Yadav et al., to quantify the deviation from the expectation of zero interaction between drugs. A ZIP synergy score above 10 indicates synergy.
as §1, with “line PANC-1” for “line, PANC-1,”, “2-4” for “2–4”, “SCO-101/paclitaxel” for “SCO-101 and paclitaxel”, “SRPK1 inhibitor/paclitaxel.” for “SRPK1-inhibitor and paclitaxel. Details are presented in the Online Resource.”
The selection began at 1 nM, increased to 2 nM and 4 nM, and ended at 8 nM. For each drug concentration the cells were kept for three passages. To evaluate the effect of the treatment either a Crystal Violet assay or MTT (3-(4,5-dimethylthiazol-2-yl)-2,5-diphenyltetrazolium bromide) assay were applied.
The MTT was conducted according to standard conditions. In short, cells were seeded at a density of 7,000 cells/well into a 96-well. One day after seeding, the cells were experimentally treated. Control conditions consisted of either growth medium (‘untreated’) or DMSO diluted in growth medium. All treatments were performed in triplicates. The cells were then kept in the CO2 incubator at 37 °C for 72 hours and plates were incubated with 100μl 1:10 MTT (0.5 mg/ml dissolved in phosphate buffered saline) for 3 hours and hereafter stopped using 100μl/well stop buffer (50g Sodium Dodecyl Sulphate, 245 mL MiliQ H2O, 5mL 1.0 N HCl was added to dissolve the formazan crystals overnight. Optical densities were measured at 570 and 670 nm.
Experiments with 4 different concentrations of either SCO-101 or paclitaxel and their combinations were applied to test for synergy among these two compounds in both the PANC-1 parental and -Paclitaxel resistant cells. SCO-101 was applied in 10, 20, 40 and 50 µM whereas paclitaxel was tested in 5, 10, 15 and 20 nM for a total of 144 h, where drug was only present in the first 72h (sFig 2). The SRPK1 inhibitor SPHINX31 was tested at 0.1; 0.5; 1 and 5 µM. The SRPK1 inhibitor SRPIN was tested at 1; 5; 10 and 50 µM. Both inhibitors were tested in combination with 5, 10, 15 and 20 nM Paclitaxel.
PANC-1-Pac cells treated with paclitaxel and SRPIN340 with four different concentrations of each for a total of 144 hours. Cell viability was evaluated by MTT assays and reported as percentage of untreated control (medium). Error bars indicate percentage standard deviation.

PDAC patients [2] = tested on: PDAC patients; design: method as in PMID 16034525; conditions: clinical phase II study; cited from earlier work
PDAC patients [3] = tested on: PDAC patients; design: method as in PMID 20107864; conditions: phase II trial; cited from earlier work

For `Nc1ccn([C@@H]2O[C@H](CO)[C@@H](O)C2(F)F)c(=O)n1` [Gem, gemcitabine], the “median overall survival (mOS)” value [1] is listed as 6.7 months and the “objective response rate (ORR)” value [1] is listed as 7%.
With `O=C(Nc1cc(C(F)(F)F)ccc1N1CCN(Cc2ccccn2)CC1)c1ccc(-c2ccncc2)o1` [SPHINX31] the “ZIP synergy score with paclitaxel” value (PANC-1-Pac cells; SPHINX31 + paclitaxel for 144 h) was 57.037.
For `O=C(Nc1cc(C(F)(F)F)ccc1N1CCCCC1)c1ccncc1` [SRPIN340], the “ZIP synergy score with paclitaxel” value (PANC-1-Pac cells; SRPIN340 + paclitaxel, 72 h with drug + 72 h fresh media) was 21.4.
For `Cc1ccc(-c2cc(C(F)(F)F)nn2-c2ccc(S(N)(=O)=O)cc2)cc1` [celecoxib], the “effect when combined with Gem and cisplatin” value (PDAC patients [2]) is listed as “no apparent effect”.
In the case of `O=c1c(-c2ccc(O)cc2)coc2cc(O)cc(O)c12` [genistein], the “effect when added to erlotinib and Gem” value (PDAC patients [3]) is given as “no clear effect on survival”.
In the case of `CC(=O)O[C@H]1C(=O)[C@@]2(C)[C@H]([C@H](OC(=O)c3ccccc3)[C@]3(O)C[C@H](OC(=O)[C@H](O)[C@@H](NC(=O)c4ccccc4)c4ccccc4)C(C)=C1C3(C)C)[C@]1(OC(C)=O)CO[C@@H]1C[C@@H]2O` [paclitaxel], the “effect on PANC-1-Pac cells (cell viability), drug alone” value (PANC-1-Pac cells; 72 h with drug + 72 h fresh media) is reported as “dose-dependent effect” and the “resistant phenotype to paclitaxel relative to parental PANC-1 control cell line” value (PANC-1-Pac cells; PANC-1-Pac vs PANC-1, MTT, 72 hours) is reported as “five times higher”.
